According to patent US5912183A, “Peptide inhibitors of mitogenesis and motogenesis” (Pharmacia & Upjohn S.p.A., priority 1993, dated 1999):
Residues, ends and D or L forms follow the SMILES beside them.

Target: T1, binding of p85 to HGF/SF receptor (Bos taurus, UniProt P23727)
T1 construct: made in house; host or cells: Sf9 insect cells (baculovirus), for both p85 and the receptor
Test: Competition of phosphopeptides with p85 for association with immobilized recombinant HGF/SF receptor (in vitro kinase assay readout)
Set-up: species or system human
In short: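 Sf9 lysates expressing p85 were pre-incubated 1 h at 4°C with phosphopeptides (10 μM; also 10 nM, 100 nM, 1 μM), then bound to immunoprecipitated baculovirus-expressed receptor pre-phosphorylated with 10 μM cold ATP. Bound p85 was detected by in vitro kinase labelling with [γ-32P]ATP, 15 min at 25°C, and SDS-PAGE.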

T1 sequence (P23727 whole entry): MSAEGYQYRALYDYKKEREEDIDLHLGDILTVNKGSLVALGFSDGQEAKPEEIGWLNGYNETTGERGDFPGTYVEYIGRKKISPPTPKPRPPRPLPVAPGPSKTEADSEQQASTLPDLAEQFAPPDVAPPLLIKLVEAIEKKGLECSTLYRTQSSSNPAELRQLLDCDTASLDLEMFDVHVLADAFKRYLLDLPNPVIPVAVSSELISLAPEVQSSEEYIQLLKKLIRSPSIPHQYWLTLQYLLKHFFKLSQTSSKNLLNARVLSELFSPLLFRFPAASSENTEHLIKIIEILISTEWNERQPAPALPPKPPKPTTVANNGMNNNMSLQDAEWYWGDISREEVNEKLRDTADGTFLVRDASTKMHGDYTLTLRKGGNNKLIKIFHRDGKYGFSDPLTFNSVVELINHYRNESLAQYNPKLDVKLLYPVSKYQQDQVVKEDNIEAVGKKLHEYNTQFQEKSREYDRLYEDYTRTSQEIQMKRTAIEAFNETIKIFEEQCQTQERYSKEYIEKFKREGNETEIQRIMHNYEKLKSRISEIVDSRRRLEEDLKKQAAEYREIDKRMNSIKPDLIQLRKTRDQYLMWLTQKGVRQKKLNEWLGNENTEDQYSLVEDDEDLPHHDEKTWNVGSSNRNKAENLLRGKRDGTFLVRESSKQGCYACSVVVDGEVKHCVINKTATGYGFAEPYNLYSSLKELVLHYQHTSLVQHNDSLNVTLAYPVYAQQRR

Q: For `CSCC[C@H](NC(=O)[C@@H](NC(=O)[C@H](CCC(=O)O)NC(=O)[C@@H](N)Cc1ccc(OP(=O)(O)O)cc1)C(C)C)C(=O)N[C@@H](CC(C)C)C(=O)N[C@@H](CCCCN)C(=O)N[C@@H](CS)C(=O)N[C@@H](Cc1c[nH]c2ccccc12)C(=O)O` [H-Tyr*-Glu-Val-Met-Leu-Lys-Cys-Trp-OH] (HELM PEPTIDE1{[N[C@@H](Cc1ccc(OP(=O)(O)O)cc1)C(=O)[*:2]].E.V.M.L.K.C.W}$$$$V2.0), which “Inhibition of binding of p85 to HGF/SF receptor” value (phosphopeptide 10 μM, p85 from Sf9 lysates, FIG. 1) is on record?
A: efficiently outcompeted p85

Q: What about the “Efficiency at outcompeting p85 (relative affinity for p85)” value (phosphopeptides at 10 nM, 100 nM, 1 μM, FIG. 2, rank order SEQ. ID NO: 19, then 22, 20, 18) of the same molecule?
A: highest
